Each block holds one compound with its values, some of them ahead of it.
How the values were obtained:
[1] = test system: human A1 adenosine receptor; settings: cited from earlier work
[2] = target: T1, human A1 receptor subtype (Homo sapiens, UniProt P30542); test: Adenosine 1 receptor subtype saturation and competition radioligand binding ([3H]DPCPX, yeast membranes)
T1 construct: yeast alpha-factor (Mfα1) prepro leader (N, cleaved yes); expressed in transfected cells; host or cells: Saccharomyces cerevisiae (strain CY12660 or related strains carrying plasmid p5095)
T1 sequence (P30542 1-326): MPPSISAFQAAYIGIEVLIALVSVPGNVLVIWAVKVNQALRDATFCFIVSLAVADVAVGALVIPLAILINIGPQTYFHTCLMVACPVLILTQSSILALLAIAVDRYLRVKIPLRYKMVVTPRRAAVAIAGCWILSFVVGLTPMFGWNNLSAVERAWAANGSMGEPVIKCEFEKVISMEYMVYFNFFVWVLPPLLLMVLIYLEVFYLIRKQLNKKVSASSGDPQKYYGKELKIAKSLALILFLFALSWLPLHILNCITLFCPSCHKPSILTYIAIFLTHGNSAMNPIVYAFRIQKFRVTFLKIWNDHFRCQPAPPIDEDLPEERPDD

[3] = target: T2, human adenosine A1 (A1R) (Homo sapiens, UniProt P30542); test: Yeast β-galactosidase reporter gene assay, strain CY12660; type: cell-based; settings: inhibition of NECA-induced β-galactosidase activity
T2 construct: yeast alpha-factor (Mfα1) prepro leader (N, cleaved yes); expressed in transfected cells; host or cells: Saccharomyces cerevisiae (strain CY12660 or related strains carrying plasmid p5095)
T2 sequence (P30542 1-326): T1 sequence (P30542 1-326)

[4] = target: T3, human A2a receptor subtype (Homo sapiens, UniProt P29274); test: Adenosine 2a receptor subtype competition radioligand binding ([3H]CGS-21680, HEK293 membranes); settings: no footnote at cell; footnote 8 of table: % activity @ 10 μM
T3 construct: expressed in transfected cells; host or cells: HEK-293 (Cadus clone # 5)
T3 sequence (P29274 whole entry): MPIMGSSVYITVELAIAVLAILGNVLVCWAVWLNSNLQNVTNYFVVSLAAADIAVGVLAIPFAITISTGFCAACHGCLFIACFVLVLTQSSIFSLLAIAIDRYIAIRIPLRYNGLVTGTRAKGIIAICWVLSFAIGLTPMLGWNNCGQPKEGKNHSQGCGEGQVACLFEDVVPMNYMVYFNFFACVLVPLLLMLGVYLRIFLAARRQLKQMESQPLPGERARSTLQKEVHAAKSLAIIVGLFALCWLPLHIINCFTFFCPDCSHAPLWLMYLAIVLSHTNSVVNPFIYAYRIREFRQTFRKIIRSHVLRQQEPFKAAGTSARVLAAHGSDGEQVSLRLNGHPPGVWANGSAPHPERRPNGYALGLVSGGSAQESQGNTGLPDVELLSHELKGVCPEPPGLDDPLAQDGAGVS

[5] = target: T4, human A3 receptor subtype (Homo sapiens, UniProt P0DMS8); test: Adenosine 3 receptor competition radioligand binding ([125I]AB-MECA, HEK293 membranes)
T4 construct: expressed in transfected cells; host or cells: HEK293
T4 sequence (P0DMS8 1-318): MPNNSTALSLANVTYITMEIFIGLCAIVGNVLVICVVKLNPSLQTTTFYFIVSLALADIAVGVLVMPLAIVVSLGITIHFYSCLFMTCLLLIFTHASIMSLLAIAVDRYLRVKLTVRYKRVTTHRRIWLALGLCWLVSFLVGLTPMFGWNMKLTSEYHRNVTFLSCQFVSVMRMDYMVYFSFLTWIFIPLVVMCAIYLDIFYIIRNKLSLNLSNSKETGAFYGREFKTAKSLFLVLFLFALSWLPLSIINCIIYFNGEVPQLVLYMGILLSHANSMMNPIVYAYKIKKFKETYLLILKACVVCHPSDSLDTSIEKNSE

[6] = target: human A2a receptor; settings: read-out: Reported Ki; cited from earlier work

Structure (SMILES): CC(Cc1ccccc1)Nc1ncnc2c1ncn2[C@@H]1O[C@H](CO)[C@@H](O)[C@H]1O (single isomer, unassigned; (-)) [PIA, (−)-N6-(2-phenylisopropyl)-adenosine]
reported affinity [1]: approximately 50 nM

Structure (SMILES): Cc1[nH]c2nc(-c3ccccc3)nc(NC3CCC(NS(C)(=O)=O)CC3)c2c1C (stereo not drawn) [Compound 604]
Ki [2]: > 10000 nM

Structure (SMILES): Cc1[nH]c2nc(-c3ccccc3)nc(NC3CCC(NC(=O)c4ccccc4)CC3)c2c1C (stereo not drawn) [Compound 606]
Ki [2]: 298 nM
IC50 [3]: > 10 µM

Structure (SMILES): Cc1[nH]c2nc(-c3ccccc3)nc(NC3CCC(CC(=O)c4ccccc4)CC3)c2c1C (stereo not drawn) [Compound 611]
Ki [2]: 786 nM
IC50 [3]: > 10 µM

Structure (SMILES): CNC(=O)NCCCNc1nc(-c2ccccc2)nc2[nH]c(C)c(C)c12 [Compound 1310]
A2a binding, % value printed in Ki column [4]: 76%

Structure (SMILES): Cc1[nH]c2nc(-c3ccccc3)nc(NCCNC(=O)C3(N)CC3)c2c1C [Compound 1313]
A1 binding, % value printed in Ki column ([2]; no footnote at cell, footnote 8 of table: % activity @ 10 μM): 30%
A2a binding, % value printed in Ki column [4]: 65%

More lines, now with the values ahead:

IC50 [3]: > 10 µM
Structure (SMILES): Cc1[nH]c2nc(-c3cccnc3)nc(N[C@H]3CC[C@H](O)CC3)c2c1C [Compound 700]

A3 binding, % activity @ 10 μM [5]: 54%^8
Structure (SMILES): O[C@H]1CC[C@H](Nc2nc(-c3ccncc3)nc3[nH]ccc23)CC1 [Compound 1321]

melting point: 236 to 238 °C
Structure (SMILES): NC(=O)[C@@H]1CCCN1c1nc(-c2ccccc2)nc2[nH]ccc12 [Compound 1602]

melting point: 213 to 215 °C
Structure (SMILES): COCc1cc2c(N3CCC[C@H]3C(N)=O)nc(-c3ccccc3)nc2[nH]1 [Compound 1605]

melting point: 268 to 271 °C
Structure (SMILES): NC(=O)[C@@H]1C[C@H](O)CN1c1nc(-c2ccccc2)nc2[nH]ccc12 [Compound 1606, 4-Hydroxy-1-(2-phenyl-7H-pyrrolo[2,3-d]pyrimidin-4-yl]-pyrrolidine-2-carboxylic acid amide]

melting point: 220 °C (dec.)
Structure (SMILES): NC(=O)[C@@H]1CCCN1c1nc(-c2ccccc2)nc2[nH]c(C(=O)O)cc12 [Compound 1619, [4-(2-Carbamoylpyrrolidin-1-yl)-2-phenyl-7H-pyrrolo[2,3-d]pyrimidine-6-carboxylic acid]]

melting point: 225 to 227 °C
Structure (SMILES): COC(=O)c1cc2c(NC3CCC(O)CC3)nc(-c3ccccc3)nc2[nH]1 (stereo not drawn) [Compound 1627, 4-(4-Hydroxy-cyclohexylamino)-2-phenyl-7H-pyrrolo[2,3-d]pyrimidine-6-carboxylic acid methyl ester]

melting point: 210 to 220 °C (dec.)
Structure (SMILES): NC(=O)c1cc2c(NC3CCC(O)CC3)nc(-c3ccccc3)nc2[nH]1 (stereo not drawn) [Compound 1630, 4-(4-Hydroxy-cyclohexylamino)-2-phenyl-7H-pyrrolo[2,3-d]pyrimidine-6-carboxylic acid amide]
